Data taken from patent US20110256206A1, “IMPLANTABLE DEVICES FOR TREATING HIV” (priority 2008, published 2011).

Columns and labels:
[1] = clinical studies; less frequent than with marketed NNRTIs; cited from earlier work
[2] = Solubility of TMC278 and of TMC278 recrystallized from DMSO; type: physicochemical
Protocol: In addition to increasing the water uptake into the bulk of the polymer, excipients can be used to decrease the crystallinity of the TMC278 and thereby lower the energy necessary to solubilize the drug. […] The recrystallized TMC278 was prepared by dissolving 10 grams of TMC278 in 800 ml of DMSO under gentle stirring for 2 hours. One hundred milliliters of the solution was subsequently poured into a flat bottomed aluminum mold. Solution was lyophilized using a Dora-Stop MTS system. Lyophilized TMC278 was collected. Two grams of PLGA 50/50 were fed into DACA compounder that was pre-set to 120° C. with screws rotating at 100 rpm. After the polymer was fed into the DACA and melted, two grams of lyophilized TMC278 were fed into the compounder and mixed at the set conditions for an additional 5 minutes. The extruded strands were collected, cooled in ambient conditions and placed in plastic bags and stored in a nitrogen box for analysis.
The lowered crystallinity of the TMC278 when re-crystallized from DMSO is also reflected in the change of the appearance of the TMC278 crystals following the recrystallization procedure. The morphology of the TMC278 particles in the drug powder appear compact and needle-shaped, but after the recrystallization process the particles are highly porous (FIG. 3). […]

[3] = Effect of gamma irradiation process parameters on recovery of TMC278 from polymer specimens; type: physicochemical
Protocol: For those samples that were irradiated under a nitrogen atmosphere, the following procedure was followed. Polymer implants were prepared containing 60% TMC278 and 40% PLGA 50/50 as described above. Samples were placed in Nalgene™ cuvettes inside the antechamber of a nitrogen glovebox. An automatic vacuum cycle was executed consisting of three 8 minute vacuum purges each followed by nitrogen refilling. The samples were transferred to the main chamber and allowed to equilibrate overnight. The cuvettes were placed in foil pouches and the pouches were sealed before removal from the nitrogen glovebox. Samples were removed from glovebox and irradiated as directed.
Those samples that were irradiated under ambient conditions were placed in vials and aluminum pouches, which were heat sealed under ambient conditions and were stored at 0° C. until they reached that temperature. The samples that were processed at 0° C. were stored at 0° C. Subsequently, the samples were removed from freezer environment and immediately placed in the irradiator. […]
From the data it can be seen that exposure level of irradiation is the most significant factor in achieving complete recovery of TMC278 from irradiated samples. […] In addition, the samples that were exposed to 15 kgy irradiation under nitrogen environment were analyzed for impurities stemming from TMC278 degradation.

Solubility in DMSO ([2]; DMSO) | TMC278 recovered (average) ([3]; irradiated at 25 kgy (under nitrogen)) | Solubility relative to unrecrystallized TMC278 ([2]; recrystallized (lyophilized from DMSO) versus unrecrystallized TMC278) | SMILES | Side effects [1] | Impurities stemming from TMC278 degradation (mass spectrometry) ([3]; 15 kgy irradiation under nitrogen environment)
highly soluble | 81% | – | Cc1cc(C=CC#N)cc(C)c1Nc1ccnc(Nc2ccc(C#N)cc2)n1 [TMC278, 4-[[4-[[4-(2-cyanoethenyl)-2,6-dimethylphenyl}-amino]-2-pyrimidinyl]-amino]-benzonitrile] | nausea, dizziness, abnormal dreams, dyspepsia, asthenia, skin rashes, somnolence and vertigo | no new impurities formed by the irradiation
– | – | more than 250 × | Cc1cc(/C=C/C#N)cc(C)c1Nc1ccnc(Nc2ccc(C#N)cc2)n1 [recrystallized TMC278] | – | –
